The text below walks through data of patent publication US8710065B2, “Tricyclic inhibitors of kinases” (AbbVie Inc., priority 2011, dated 2014).

The target in this assay is T1, GST-tagged-Wee1 kinase (Homo sapiens, UniProt P30291).
T1 construct: purchased Carnabio (Carna Biosciences) 05-177
T1 sequence (P30291 whole entry): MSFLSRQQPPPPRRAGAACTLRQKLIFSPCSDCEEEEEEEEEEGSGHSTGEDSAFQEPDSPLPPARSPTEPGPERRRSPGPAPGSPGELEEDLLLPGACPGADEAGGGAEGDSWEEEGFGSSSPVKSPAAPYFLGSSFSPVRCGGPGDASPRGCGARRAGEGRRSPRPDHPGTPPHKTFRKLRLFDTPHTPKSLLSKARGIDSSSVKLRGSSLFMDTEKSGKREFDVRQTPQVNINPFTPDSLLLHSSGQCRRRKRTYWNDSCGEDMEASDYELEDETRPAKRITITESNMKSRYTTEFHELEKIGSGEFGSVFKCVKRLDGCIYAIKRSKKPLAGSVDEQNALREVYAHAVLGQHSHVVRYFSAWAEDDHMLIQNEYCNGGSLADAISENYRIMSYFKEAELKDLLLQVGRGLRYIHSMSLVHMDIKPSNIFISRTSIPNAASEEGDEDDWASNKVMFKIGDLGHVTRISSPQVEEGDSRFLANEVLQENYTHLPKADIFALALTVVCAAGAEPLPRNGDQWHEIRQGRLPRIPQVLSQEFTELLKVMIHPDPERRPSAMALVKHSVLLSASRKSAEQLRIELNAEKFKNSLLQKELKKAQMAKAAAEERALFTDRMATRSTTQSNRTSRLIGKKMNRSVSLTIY
As to the kind of experiment: Wee1 time-resolved fluorescence equilibrium binding assay (displacement of Oregon Green-labeled ATP-competitive kinase probe). Conditions: read-out: Wee-1 inhibition (Ki). Summed up: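 Ki values derive from competitive displacement, under equilibrium, of a fast-reversible ATP-site Oregon Green kinase probe from GST-tagged Wee1, detected by time-resolved fluorescence.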
As to `O=C(C1CCCC1)N1Cc2cc(Nc3ncc4c(=O)n(-c5c(F)cccc5Cl)c5nccn5c4n3)ccc2C2(CC2)C1` [Example 267, 6-(2-chloro-6-fluorophenyl)-2-{[2′-(cyclopentylcarbonyl)-2′,3′-dihydro-1′H-spiro[cyclopropane-1,4′-isoquinolin]-7′-yl]amino}imidazo[1,2-a]pyrimido[5,4-e]pyrimidin-5(6H)-one], the inhibitory constant (Ki) is less than 0.01 µM.
The same measure for `Cc1c(O)cccc1-n1c(=O)c2cnc(Nc3ccccc3)nc2n2ccnc12` [Example 54, 6-(3-hydroxy-2-methylphenyl)-2-(phenylamino)imidazo[1,2-a]pyrimido[5,4-e]pyrimidin-5(6H)-one]: 0.01 to 0.1 µM; for `N#CCCN1CCN(c2ccc(Nc3ncc4c(=O)n(-c5ccccc5Cl)c5nccn5c4n3)cc2)CC1` [Example 232, 3-[4-(4-{[6-(2-chlorophenyl)-5-oxo-5,6-dihydroimidazo[1,2-a]pyrimido[5,4-e]pyrimidin-2-yl]amino}phenyl)piperazin-1-yl]propanenitrile]: 0.01 to 0.1 µM; for `Cc1cc(Nc2ncc3c(=O)n(-c4c(Cl)cccc4Cl)c4nccn4c3n2)ccc1N1CCNCC1` [Example 110, 6-(2,6-dichlorophenyl)-2-{[3-methyl-4-(piperazin-1-yl)phenyl]amino}imidazo[1,2-a]pyrimido[5,4-e]pyrimidin-5(6H)-one]: less than 0.01 µM.
In the case of `CN1Cc2cc(Nc3ncc4c(=O)n(-c5c(Cl)cc(F)cc5Cl)c5nccn5c4n3)ccc2C(C)(C)C1` [Example 212, 6-(2,6-dichloro-4-fluorophenyl)-2-[(2,4,4-trimethyl-1,2,3,4-tetrahydroisoquinolin-7-yl)amino]imidazo[1,2-a]pyrimido[5,4-e]pyrimidin-5(6H)-one] it was less than 0.01 µM; in that of `CCc1cc(Nc2ncc3c(=O)n(-c4c(Cl)cccc4Cl)c4nccn4c3n2)ccc1N1CCN(C)CC1` [Example 120, 6-(2,6-dichlorophenyl)-2-{[3-ethyl-4-(4-methylpiperazin-1-yl)phenyl]amino}imidazo[1,2-a]pyrimido[5,4-e]pyrimidin-5(6H)-one], less than 0.01 µM.
In the case of `CN1CCN(Cc2ccc(Nc3ncc4c(=O)n(-c5c(Cl)cccc5Cl)c5nccn5c4n3)cc2)CC1` [Example 127, 6-(2,6-dichlorophenyl)-2-({4-[(4-methylpiperazin-1-yl)methyl]phenyl}amino)imidazo[1,2-a]pyrimido[5,4-e]pyrimidin-5(6H)-one] it was less than 0.01 µM; in that of `O=c1c2cnc(Nc3ccc(C4CCCN4)cc3)nc2n2ccnc2n1-c1ccccc1Cl` (stereo not shown) [Example 71, 6-(2-chlorophenyl)-2-{[4-(pyrrolidin-2-yl)phenyl]amino}imidazo[1,2-a]pyrimido[5,4-e]pyrimidin-5(6H)-one], less than 0.01 µM; in that of `CN1CCN(c2ccc(Nc3ncc4c(=O)n(-c5c(Cl)cccc5Cl)c5nccn5c4n3)cc2Cl)CC1` [Example 136, 2-{[3-chloro-4-(4-methylpiperazin-1-yl)phenyl]amino}-6-(2,6-dichlorophenyl)imidazo[1,2-a]pyrimido[5,4-e]pyrimidin-5(6H)-one], less than 0.01 µM.
Take `Cc1cc(O)ccc1-n1c(=O)c2cnc(Nc3ccc4c(c3)CNCC43CC3)nc2n2ccnc12` [Example 279, 2-(2′,3′-dihydro-1′H-spiro[cyclopropane-1,4′-isoquinolin]-7′-ylamino)-6-(4-hydroxy-2-methylphenyl)imidazo[1,2-a]pyrimido[5,4-e]pyrimidin-5(6H)-one]: the inhibition constant Ki is less than 0.01 µM.

As a reminder, the Ki is the dissociation constant of the complex between target and ligand, obtained from inhibition or displacement.
